# “And” between values parts separate entries of the source, which are not always exact repeats. Equal values may be shown once.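 Exposure lasted 48 hours, with cells grown in 96-well plates and compounds tested at five concentrations. The concentration for 50% growth inhibition is given as GI50. The concentration for full growth arrest is given as TGI.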
# Assays:
# Assay in all cases: NCI-60 cell line screen, 48 h
# [1] = test system: DU-145 prostate
# [2] = test system: HCT-15 colon
# [3] = test system: NCI-H23 lung
# [4] = test system: OVCAR-5 ovarian
# [5] = test system: OVCAR-8 ovarian
# [6] = test system: RXF 393 renal
# [7] = test system: SF-268 CNS
# [8] = test system: SF-295 CNS
# [9] = test system: SK-MEL-5 melanoma
# [10] = test system: SR leukemia
Structure (SMILES),TGI [1],TGI [2],TGI [3],TGI [4],TGI [5],TGI [6],TGI [7],TGI [8],TGI [9],TGI [10],GI50 [1],GI50 [2],GI50 [3],GI50 [4],GI50 [5],GI50 [6],GI50 [7],GI50 [8],GI50 [9],GI50 [10]
O=C(O)c1ccc(C(=O)O)c(C(=O)Nc2ccc3c(c2)C(=O)c2ccccc2-3)c1,> 100 µM,> 100 µM,> 100 µM,> 100 µM,> 100 µM,> 100 µM,> 100 µM,> 100 µM,> 100 µM,> 100 µM,,,,,,,,,,
O=C(Nc1ccc(/C=C/c2ccc(NC(=O)c3cc(S(=O)(=O)O)c4cccnc4c3O)cc2S(=O)(=O)O)c(S(=O)(=O)O)c1)c1cc(S(=O)(=O)O)c2cccnc2c1O,> 50.7 µM,> 71.5 µM,> 42 µM,> 56.9 µM,> 72.4 µM,> 53.6 µM,> 100 µM,> 76.8 µM,> 64.3 µM,0.17 µM,17.7 µM,> 41.6 µM,6.65 µM,> 20.2 µM,9.66 µM,20.9 µM,7.99 µM,34.4 µM,50.2 µM,0.0205 µM
N#C[Se]CCCNS(=O)(=O)C1CC2C=CC1C2 (configuration not stated),2.58 µM,3.65 µM,4.63 µM,5.13 µM,5.06 µM,1.34 µM,0.916 µM,2.43 µM,2.95 µM,> 100 µM,1.06 µM,1.47 µM,1.16 µM,0.828 µM,0.511 µM,0.364 µM,0.301 µM,1.01 µM,1.41 µM,0.57 µM
O=C1c2cccc(NCCN=Cc3ccccc3O)c2C(=O)c2c(NCCN=Cc3ccccc3O)cccc21,1.55 µM,12 µM,3.2 µM,5.43 µM,2.47 µM,,1.46 µM,1.88 µM,4.03 µM,,0.364 µM,2.23 µM,1.01 µM,1.41 µM,0.369 µM,,0.349 µM,0.409 µM,1.55 µM,0.363 µM
O=C(Nc1n[nH]c2nnc(-c3cccnc3)cc12)C1CC1,> 25 µM,> 25 µM,> 25 µM,> 25 µM,> 25 µM,> 17.9 µM,> 25 µM,> 7.49 µM,> 25 µM,> 25 µM,> 13.4 µM,> 20.3 µM,> 15.9 µM,> 17.8 µM,7.65 µM,0.428 µM,> 11.8 µM,0.338 µM,4.61 µM,6.23 µM
CC(C)(C)CC(N)=O,> 100 µM,> 100 µM,> 100 µM,> 100 µM,> 100 µM,,> 100 µM,> 100 µM,> 100 µM,> 100 µM,,,,,,,,,,
Cn1cc(C2=C(c3cn(C)c4ccccc34)C(=O)NC2=O)c2ccccc21,> 25 µM,> 25 µM,> 25 µM,> 25 µM,> 25 µM,14.5 µM,> 25 µM,> 25 µM,> 25 µM,> 25 µM,1.66 µM,0.729 µM,2.3 µM,> 25 µM,2.96 µM,0.825 µM,3.1 µM,0.903 µM,0.873 µM,0.248 µM
O=c1ssc(Cl)c1Cl,> 10 µM,> 10 µM,> 10 µM,> 10 µM,> 10 µM,> 10 µM,> 10 µM,> 10 µM,> 10 µM,> 10 µM,,,,,,,,,,
CN1C/C=C/CCOc2cccc(c2)-c2ccnc(n2)Nc2cccc(c2)C1,1.4 µM,3.18 µM,0.289 µM,2.08 µM,1.26 µM,0.0447 µM,0.264 µM,0.434 µM,0.222 µM,,0.0402 µM,0.036 µM,0.0577 µM,0.0323 µM,0.0412 µM,0.0207 µM,0.0425 µM,0.0321 µM,0.0318 µM,0.0201 µM
COc1ccc(Nc2cc(C)nc(NCCCNc3ccnc4cc(Cl)ccc34)n2)cc1,10.7 µM,2.49 µM,5.78 µM,6.69 µM,6.03 µM,,3.61 µM,2.73 µM,2.76 µM,3.62 µM,3.4 µM,1.03 µM,2.27 µM,2.35 µM,2.42 µM,,1.8 µM,1.34 µM,1.4 µM,0.778 µM
CC(=O)c1cc(C(=O)c2ccc3c(c2)Sc2ccccc2N3)c2cc(C)ccn12,> 100 µM,> 100 µM,> 100 µM,,> 100 µM,> 100 µM,> 100 µM,4.15 µM,5.56 µM,> 100 µM,0.188 µM,0.0704 µM,0.237 µM,,0.451 µM,0.0411 µM,0.0823 µM,0.036 µM,0.122 µM,0.0386 µM
CC(=O)N1N=C2/C(=C/c3ccc(Cl)cc3)CC(C)CC2C1c1ccc(Cl)cc1 (configuration not stated),> 100 µM,> 100 µM,> 100 µM,> 100 µM,> 100 µM,33.9 µM,73.4 µM,> 100 µM,25 µM,53.8 µM,30.5 µM,31.9 µM,25.2 µM,43.4 µM,24.9 µM,15.3 µM,21.5 µM,28.8 µM,12.2 µM,14.6 µM
COC1=CC(c2ccc[nH]2)=N/C1=C\c1[nH]c(C)c(C(=O)CCCCC(=O)Oc2ccc3c(c2)CCC2C3CC[C@]3(C)[C@@H](O)CC[C@@H]23)c1C (some centres not stated),> 100 µM,> 100 µM,> 100 µM,> 100 µM,> 100 µM,> 100 µM,> 100 µM,> 100 µM,> 100 µM,> 100 µM,9.57 µM,3.56 µM,39.9 µM,> 100 µM,> 100 µM,25.8 µM,> 100 µM,> 100 µM,3.63 µM,3.21 µM
Cc1cc(C(C)(C)C)cc(CNC2CCCCC2)c1O,37.6 µM,31.4 µM,29.2 µM,31.9 µM,31 µM,12.6 µM,30.3 µM,31.7 µM,30.9 µM,53.6 µM,,,,,,,,,,
NCC1OC(OC2C(CO)OC(OC3C(O)C(N)CC(N)C3OC3OC(CO)C(O)CC3N)C2O)C(N)C(O)C1OC1OC(CO)C(O)C(O)C1O (configuration not stated),> 50 µg/mL,> 50 µg/mL,> 50 µg/mL,> 50 µg/mL,> 50 µg/mL,,> 50 µg/mL,> 50 µg/mL,> 50 µg/mL,> 50 µg/mL,> 50 µg/mL,> 50 µg/mL,> 50 µg/mL,> 50 µg/mL,> 50 µg/mL,,> 50 µg/mL,> 50 µg/mL,> 50 µg/mL,> 50 µg/mL
CCN1Cc2nc3sc(C)c(C)c3c(=O)n2C=C1C,23 µM,19 µM,> 100 µM,> 100 µM,25.3 µM,,36.2 µM,> 100 µM,51.8 µM,8.49 µM,7.7 µM,3.5 µM,7.26 µM,42.3 µM,4.83 µM,,5.41 µM,20.2 µM,5.87 µM,1.58 µM
CC1OC(OC2C(OC3CCC4(C)C(CCC5(C)C4CC=C4C6CC(C)(C)CCC6(C(=O)O)CCC45C)C3(C)CO)OCC(O)C2O)C(O)C(O)C1O (configuration not stated),42.3 µM,42.1 µM,33.1 µM,38.4 µM,40.1 µM,11.6 µM,37.6 µM,32 µM,36.3 µM,9.74 µM,,,,,,,,,,
CS(=O)(=O)CC(=O)c1ccccc1,> 100 µM,> 100 µM,> 100 µM,> 100 µM,> 100 µM,> 100 µM,> 100 µM,> 100 µM,> 100 µM,> 100 µM,,,,,,,,,,
Cc1ccc2c(c1)S(=O)(=O)c1ccc3ccccc3c1N2,> 100 µM,> 100 µM,> 100 µM,> 100 µM,> 100 µM,> 100 µM,> 100 µM,> 100 µM,> 100 µM,69.5 µM,,,,,,,,,,
COc1ccc(C2C(C)C(=O)C(C)C(c3ccc(OC)cc3)N2N=O)cc1 (configuration not stated),637 µM,> 1000 µM,> 750 µM and 713 µM,> 977 µM,750 µM and > 1000 µM,64.8 µM and 216 µM and 122 µM,> 1000 µM,491 µM,> 750 µM,> 1000 µM,,> 750 µM,> 750 µM,,30.5 µM and 248 µM,20.7 µM and 67.6 µM,78.1 µM,20.7 µM,> 750 µM,
Clc1ccc(OCc2nnc3n2N=C(c2ccc(Cl)cc2Cl)CS3)cc1,> 100 µM,37.1 µM,37.9 µM,81 µM,52.7 µM,31.8 µM,40.2 µM,44.2 µM,31.9 µM,52.9 µM,31.2 µM,13.9 µM,17.1 µM,22.1 µM,25.4 µM,13.7 µM,17.4 µM,13.7 µM,16.4 µM,19.4 µM
Cn1c(NCC(O)CN2CCCC2)cc(=O)n(C)c1=O (configuration not stated),> 100 µM,> 100 µM,> 100 µM,> 100 µM,> 100 µM,> 100 µM,> 100 µM,> 100 µM,> 100 µM,> 100 µM,> 100 µM,> 100 µM,> 100 µM,> 100 µM,> 100 µM,> 100 µM,> 100 µM,> 100 µM,> 100 µM,> 100 µM
CCCCCCCCC(=O)OCC(CS[As](C)C)OC(=O)CCCCCCCC (configuration not stated),2.64 µM,10.4 µM,1.5 µM,10 µM,5.3 µM,10.7 µM,25.9 µM,19.4 µM,0.388 µM,5.41 µM,0.747 µM,0.629 µM,0.593 µM,3.22 µM,1.75 µM,0.548 µM,3.53 µM,3.66 µM,0.163 µM,1.03 µM
CC(=O)Nc1ccc(COC(O)CN2CCCCC2)cc1[N+](=O)[O-] (configuration not stated),> 100 µM,> 100 µM,> 100 µM,> 100 µM,> 100 µM,> 100 µM,> 100 µM,> 100 µM,> 100 µM,> 100 µM,,,,,,,,,,
COc1cc(-c2c(C#N)c(N)nc(N3CCOCC3)c2C#N)cc(OC)c1OC,> 100 µM,> 100 µM,,> 100 µM,> 100 µM,> 100 µM,> 100 µM,> 100 µM,> 100 µM,40.2 µM,> 100 µM,> 100 µM,,27.2 µM,> 100 µM,> 100 µM,> 100 µM,> 100 µM,> 100 µM,13.4 µM
Cc1ccc(NC(=O)c2sc3nc4c(cc3c2N)C(=O)CCC4)cc1C,> 100 µM,> 100 µM,> 100 µM,> 100 µM,> 100 µM,,> 100 µM,> 100 µM,21.6 µM,26.8 µM,0.673 µM,0.556 µM,1.41 µM,3.16 µM,3.45 µM,,4.47 µM,0.358 µM,0.418 µM,0.499 µM
OCc1ccc(N2CCc3ccccc3C2)cc1Cl,22.3 µM,41.6 µM,44 µM,0.069 µM,36.6 µM,28.8 µM,> 100 µM,,,> 76.4 µM,2.38 µM,3.35 µM,13.9 µM,< 0.0123 µM,3.66 µM,13.5 µM,32.5 µM,,,21.9 µM
CN(C)c1ccc(/C=C/C2=[N+](C)c3ccccc3C2(C)C)cc1,23.9 µM,18.6 µM,11.9 µM,22.4 µM,12.1 µM,16.8 µM,18.3 µM,6.64 µM,,13.9 µM,0.453 µM,2.66 µM,0.286 µM,2.22 µM,0.349 µM,2.26 µM,0.5 µM,1.12 µM,,0.13 µM
COc1ccc(/C=C/C(=O)c2ccc(OC)c(OC)c2)cc1O,5.64 µM,32.9 µM,30.4 µM,28.9 µM,10.9 µM,7.62 µM,29.1 µM,,18.8 µM,> 100 µM,2.34 µM,3.41 µM,9.91 µM,4.94 µM,2.98 µM,2.63 µM,8.74 µM,,5.9 µM,0.393 µM

# From PubChem BioAssay (NCI)
